Experimental data taken from the NIST ThermoML archive (doi:10.1016/j.jct.2018.03.013).
Numbers after ± are expanded uncertainties.

Legend:
[1] = 100 kPa, Liquid; for speed of sound: Frequency=3 MHz, Linear variable-path acoustic interferometer; for mass density: Pycnometric method
[2] = xn = mol fraction of the nth substance listed; details: 100 kPa, Liquid, x1 = 1; for speed of sound: Frequency=3 MHz, Linear variable-path acoustic interferometer; for mass density: Pycnometric method

| Compound | speed of sound ([1]; 293.15 K) | mass density ([1]; 293.15 K) | speed of sound ([1]; 298.15 K) | mass density ([1]; 298.15 K) | speed of sound ([1]; 303.15 K) | mass density ([1]; 303.15 K) | speed of sound ([1]; 308.15 K) | mass density ([1]; 308.15 K) | speed of sound ([1]; 313.15 K) | mass density ([1]; 313.15 K) | speed of sound ([1]; 318.15 K) | mass density ([1]; 318.15 K) | speed of sound ([2]; 293.15 K) | mass density ([2]; 293.15 K) | speed of sound ([2]; 298.15 K) | mass density ([2]; 298.15 K) | speed of sound ([2]; 303.15 K) | mass density ([2]; 303.15 K) | speed of sound ([2]; 308.15 K) | mass density ([2]; 308.15 K) | other results |
| --- | --- | --- | --- | --- | --- | --- | --- | --- | --- | --- | --- | --- | --- | --- | --- | --- | --- | --- | --- | --- | --- |
| C=C(C)C(=O)OCCCC [butyl 2-methyl-2-propenoate] | 1241.7 ± 1.7 m/s | 895.19 ± 1 kg/m3 | 1222.1 ± 1.7 m/s | 890.48 ± 1 kg/m3 | 1202.4 ± 1.7 m/s | 885.78 ± 1 kg/m3 | 1183 ± 1.7 m/s | 881.07 ± 1 kg/m3 | 1163.8 ± 1.7 m/s | 876.35 ± 1 kg/m3 | 1145.7 ± 1.7 m/s | 871.64 ± 1 kg/m3 | – | – | – | – | – | – | – | – | – |
| CC#N [acetonitrile] + C=C(C)C(=O)OCCCC | – | – | – | – | – | – | – | – | – | – | – | – | 1304.7 ± 1.7 m/s | 782.12 ± 1 kg/m3 | 1282.8 ± 1.6 m/s | 776.82 ± 1 kg/m3 | 1263.9 ± 1.6 m/s | 771.52 ± 1 kg/m3 | 1245 ± 1.6 m/s | 766.21 ± 1 kg/m3 | speed of sound ([2]; 313.15 K): 1226.5 ± 1.6 m/s; mass density ([2]; 313.15 K): 760.9 ± 1 kg/m3; speed of sound ([2]; 318.15 K): 1207.9 ± 1.6 m/s; mass density ([2]; 318.15 K): 755.59 ± 1 kg/m3 |
| C=C(C)C(=O)OCC [ethyl 2-methylpropenoate] | 1196.8 ± 1.6 m/s | 912.3 ± 1 kg/m3 | 1176.9 ± 1.6 m/s | 907.18 ± 1 kg/m3 | 1157.6 ± 1.6 m/s | 902.06 ± 1 kg/m3 | 1139.4 ± 1.6 m/s | 896.94 ± 1 kg/m3 | 1121.5 ± 1.6 m/s | 891.83 ± 1 kg/m3 | 1104.6 ± 1.6 m/s | 886.71 ± 1 kg/m3 | – | – | – | – | – | – | – | – | – |
| C=C(C)C(=O)OC [methyl methacrylate] | 1200.5 ± 1.6 m/s | 943.38 ± 1 kg/m3 | 1183.6 ± 1.6 m/s | 937.64 ± 1 kg/m3 | 1168.5 ± 1.6 m/s | 931.9 ± 1 kg/m3 | 1152.6 ± 1.6 m/s | 926.16 ± 1 kg/m3 | 1135.4 ± 1.6 m/s | 920.42 ± 1 kg/m3 | 1118.3 ± 1.6 m/s | 914.67 ± 1 kg/m3 | – | – | – | – | – | – | – | – | – |
| CC#N [acetonitrile] | 1304.7 ± 1.7 m/s | 782.12 ± 1 kg/m3 | 1282.8 ± 1.6 m/s | 776.82 ± 1 kg/m3 | 1263.9 ± 1.6 m/s | 771.52 ± 1 kg/m3 | 1245 ± 1.6 m/s | 766.21 ± 1 kg/m3 | 1226.5 ± 1.6 m/s | 760.9 ± 1 kg/m3 | 1207.9 ± 1.6 m/s | 755.59 ± 1 kg/m3 | – | – | – | – | – | – | – | – | – |
| CC#N [acetonitrile] + C=C(C)C(=O)OCC | – | – | – | – | – | – | – | – | – | – | – | – | 1304.7 ± 1.7 m/s | 782.12 ± 1 kg/m3 | 1282.8 ± 1.6 m/s | 776.82 ± 1 kg/m3 | 1263.9 ± 1.6 m/s | 771.52 ± 1 kg/m3 | 1245 ± 1.6 m/s | 766.21 ± 1 kg/m3 | speed of sound ([2]; 313.15 K): 1226.5 ± 1.6 m/s; mass density ([2]; 313.15 K): 760.9 ± 1 kg/m3; speed of sound ([2]; 318.15 K): 1207.9 ± 1.6 m/s; mass density ([2]; 318.15 K): 755.59 ± 1 kg/m3 |
| CC#N [acetonitrile] + C=C(C)C(=O)OC | – | – | – | – | – | – | – | – | – | – | – | – | 1304.7 ± 1.7 m/s | 782.12 ± 1 kg/m3 | 1282.8 ± 1.6 m/s | 776.82 ± 1 kg/m3 | 1263.9 ± 1.6 m/s | 771.52 ± 1 kg/m3 | 1245 ± 1.6 m/s | 766.21 ± 1 kg/m3 | speed of sound ([2]; 313.15 K): 1226.5 ± 1.6 m/s; mass density ([2]; 313.15 K): 760.9 ± 1 kg/m3; speed of sound ([2]; 318.15 K): 1207.9 ± 1.6 m/s; mass density ([2]; 318.15 K): 755.59 ± 1 kg/m3 |
